Consider one molecule from patent publication US11484522B2, “Composite formulation and use thereof for preparing drugs for the treatment of tumours” (TIANJIN MEDICAL UNIVERSITY GENERAL HOSPITAL, priority 2018, dated 2022).

Assay [1] relates to HOTAIR target genes. Nature of the assay: qPCR RNA level of HOTAIR target genes in tumor cell lines. Type of assay: cell-based. The method, then: FIG. 2B: The variations in RNA level of a target gene 48 h after treating with 40 nM of 36806 in multiple tumor cell lines.
FIG. 4A: RNA levels change of target genes in glioma and breast cancer cell lines after treating with 40 uM of 36806 for 48 hours.
FIG. 4C: RNA levels change of target genes after treating with low-dose 36806 concentration gradient for 48 hours.
(§1) Therefore, 36806 is capable of inhibiting the binding of HOTAIR to EZH2 at low concentrations and interfering with the recruitment of PRC2 to target genes, to relieve the target genes from silent suppression of histone methylation, thereby altering the function of epigenetic regulation.

The subject of assay [2] is binding of HOTAIR to the target genes. Nature of the assay: CHIRP experiments, binding of HOTAIR to target genes. The conditions noted are these: 40 nM. The source says:
(§2) Therefore, the inhibiting effect of 36806 on HOTAIR-EZH2 is specific.

Assay [3] has as its system H3K27me3 in the promoter region of the target genes. Nature of the assay: CHIP experiments, H3K27me3 and RNA polymerase II in promoter region of target genes. Type of assay: cell-based.
Text: FIG. 3F: Chromatin immunoprecipitation (CHIP) experiments verified that 36806 affected the recruitment of PRC2 by HOTAIR after hindering the binding of HOTAIR to EZH2, such that the level of H3K27me3 in the promoter region of the target genes was reduced and the target genes were transcriptionally activated.
FIG. 5A: The Site1 region before the transcription initiation of APC2 is a transcription promoter region of APC2 and a binding region of H3K27me3.
FIG. 5B: After the treatment with 36806, the binding of H3K27me3 in Site1 region was weakened, and the binding of RNA polymerase II was strengthened.
as §2
(§3) Among the three predicted H3K27me3 binding sites in the promoter region of the target gene adenomatous polyposis coli 2 (APC2), sitel is a significant binding region of H3K27me3 (FIG. 5A). After the treatment with 36806, the binding of H3K27me3 in sitel region was weakened, and the binding of RNA polymerase II was strengthened (FIGS. 5B and 5C). […] APC2 is a tumor suppressor gene that can participate in the degradation of beta-catenin by ubiquitination and can inhibit the WNT signal path. The increased expression of APC2 can boost the degradation of beta-catenin. The nucleus-cytoplasm distribution of beta-catenin of cells in the treated group was decreased compared with that of the DMSO group (FIGS. 5D-5F). In this way, the downstream transcription of beta-catenin is inhibited, the expression of downstream EMT-related gene of multiple tumor cell lines is inhibited, and the protein expression is reduced (FIGS. 5G). Therefore, the invasion of tumor cells is weakened (FIG. 5H). Therefore, 36806 can inhibits the WNT signal path, reverses tumor EMT, and reduces tumor invasion and metastasis by increasing the expression level of target gene APC2.

For assay [4], the system named is HOTAIR target genes. Nature of the assay: Western blot of protein level of HOTAIR target genes. Type of assay: cell-based. The method, then:
as §1
The combination index (CI) of 36806 and DZNEP was measured by CalcuSyn software. […] After the transfection of EZH2 interfering RNA, combined with 36806 treatment, the transcription level of HOTAIR's target genes was higher (FIG. 7C). […] When used in combination with low-dose 36806, the dosage of DZNEP can be reduced by ⅘ (FIG. 7D).

The subject of assay [5] is beta-catenin. Nature of the assay: Immunofluorescence and WB of beta-catenin and downstream EMT-related genes. Type of assay: cell-based.
Text: as §3

The subject of assay [6] is glioblastoma, breast cancer, melanoma and gastric cancer cell lines. Description: Transwell invasion assay. Type of assay: cell-based. The settings on record: low-dose 40 nM (FIG. 5H).
Text: as §3

For assay [7], the system named is MDA-MB-231 breast cancer orthotopic model. Nature of the assay: Breast cancer orthotopic model established with MDA-MB-231 cell line. Type of assay: in vivo, mouse. The settings on record: 50 mg/kg intraperitoneal. The text has this:
To further verify the anti-tumor effect of 36806 in vivo, a breast cancer orthotopic model is established by using a MDA-MB-231 cell line. […] The tumor volume measured on the body surface was reduced, and the size and wet weight of the tumor after dissection were reduced as well (FIGS. 6C-6D). […] HE staining confirmed the orthotopic lung metastasis of breast cancer (FIG. 6F). […] The above is consistent with the results of in-vitro experiments, that is, 36806 can inhibit the proliferation and metastasis of breast cancer orthotopic model.
A breast cancer orthotopic model is established by using a MDA-MB-231 cell line. 0.2 mg/kg 36806 in combination with 0.2 mg/kg DZNEP served as a combination group (the molar ratio was about 1:1), 0.2 mg/kg 36806 and 1 mg/kg DZNEP served as single-drug groups, and DMSO served as a control group.

The subject of assay [8] is multiple tumor cell lines. The settings on record: glioblastoma (U87-MG, LN229, primary N33), breast cancer (MDA-MB-231, MCF-7), HeLa, A375, SGC-7901, MGC-803, HepG2, PC9 cell lines.
Protocol: Toxicity tests were then performed in multiple tumor cell lines.
Setting [9] is: 40 uM, 48 hours, glioma and breast cancer cell lines.
The mark [10] stands for this setting: low concentration gradient of 10 nM to 10 uM, 48 hours.

Take `CC(C)NCC1Cc2cc(Cl)cc(Cl)c2O1` (stereo not drawn) [compound 36806, N-[(5,7-dichloro-2,3-dihydro-1-benzofuran-2-yl)methyl]propan-2-amine]: the “mRNA level of HOTAIR's target genes HOXD10, PCDH10, PCDHB5, NLK, APC2” value in assay [1] (setting [9]) is “increase”. In addition, the “expression level of HOTAIR target genes” value in assay [1] (RNA level, 40 nM, 48 h, multiple tumor cell lines) is recorded as “up-regulate”. Moreover, in assay [1] (setting [10]), the “RNA level of the target genes” value was “increased”. Also, the “binding of HOTAIR to the target genes (CHIRP)” value in assay [2] is listed as “without affecting”. For the same molecule, the “level of H3K27me3 in the promoter region of the target genes (CHIP)” value in assay [3] is “reduced”. Further, in assay [3] (after treatment with 36806), the “binding of H3K27me3 in site1 region of APC2 promoter” value was “weakened” and the “binding of RNA polymerase II in site1 region of APC2 promoter” value was “strengthened”. Besides, the “protein level of HOTAIR's target genes HOXD10, PCDH10, PCDHB5, NLK, APC2” value in assay [4] (setting [9]) is on record as “increase”. Besides, the “protein level of the target genes, time gradient” value in assay [4] (40 uM, time gradient) is “changed”. Moreover, the “protein level of the target genes” value in assay [4] (setting [10]) is given as “increased”. Moreover, the “nucleus-cytoplasm distribution of beta-catenin” value in assay [5] (compared with DMSO group) was “decreased”. Besides, the “protein expression of downstream EMT-related genes” value in assay [5] (multiple tumor cell lines) is “reduced”. Also, the “invasion of tumor cells” value in assay [6] is “weakened”. In assay [7], the “expression of APC2 (immunofluorescence of tissue sections)” value is recorded as “increased”; the “expression of beta-catenin (immunofluorescence of tissue sections)” value is given as “decreased”; the “expression of target genes HOXD10 and PCDH10 (immunofluorescence of tissue sections)” value was “increased”. Also, the “tumor size (bioluminescence imaging)” value in assay [7] (20 days and 40 days, vs DMSO group) was “significantly reduced”. Moreover, in assay [7] (vs DMSO group), the “size and wet weight of the tumor after dissection” value is reported as “reduced”; the “tumor volume measured on the body surface” value is “reduced”. For the same molecule, in assay [7] (organ imaging), the “probability and scope of lung metastasis” value is “smaller”. Besides, the “IC50 of 36806” value in assay [8] is “low”.
